The source of these data is paper PMC8213057, “Targeting ALK2: An Open Science Approach to Developing Therapeutics for the Treatment of Diffuse Intrinsic Pontine Glioma” (Journal of Medicinal Chemistry, 2020).

One assay addresses BRK (Homo sapiens, UniProt Q13882). The note with it: 1 μM; Run 1, Run 2.
In the next assay the target is CK2a2 (Homo sapiens, UniProt P19784). The settings on record: 1 μM; Run 1, Run 2.
A further assay concerns the target T1, EPHA3 (Homo sapiens, UniProt P29320).
T1 sequence (P29320 21-983): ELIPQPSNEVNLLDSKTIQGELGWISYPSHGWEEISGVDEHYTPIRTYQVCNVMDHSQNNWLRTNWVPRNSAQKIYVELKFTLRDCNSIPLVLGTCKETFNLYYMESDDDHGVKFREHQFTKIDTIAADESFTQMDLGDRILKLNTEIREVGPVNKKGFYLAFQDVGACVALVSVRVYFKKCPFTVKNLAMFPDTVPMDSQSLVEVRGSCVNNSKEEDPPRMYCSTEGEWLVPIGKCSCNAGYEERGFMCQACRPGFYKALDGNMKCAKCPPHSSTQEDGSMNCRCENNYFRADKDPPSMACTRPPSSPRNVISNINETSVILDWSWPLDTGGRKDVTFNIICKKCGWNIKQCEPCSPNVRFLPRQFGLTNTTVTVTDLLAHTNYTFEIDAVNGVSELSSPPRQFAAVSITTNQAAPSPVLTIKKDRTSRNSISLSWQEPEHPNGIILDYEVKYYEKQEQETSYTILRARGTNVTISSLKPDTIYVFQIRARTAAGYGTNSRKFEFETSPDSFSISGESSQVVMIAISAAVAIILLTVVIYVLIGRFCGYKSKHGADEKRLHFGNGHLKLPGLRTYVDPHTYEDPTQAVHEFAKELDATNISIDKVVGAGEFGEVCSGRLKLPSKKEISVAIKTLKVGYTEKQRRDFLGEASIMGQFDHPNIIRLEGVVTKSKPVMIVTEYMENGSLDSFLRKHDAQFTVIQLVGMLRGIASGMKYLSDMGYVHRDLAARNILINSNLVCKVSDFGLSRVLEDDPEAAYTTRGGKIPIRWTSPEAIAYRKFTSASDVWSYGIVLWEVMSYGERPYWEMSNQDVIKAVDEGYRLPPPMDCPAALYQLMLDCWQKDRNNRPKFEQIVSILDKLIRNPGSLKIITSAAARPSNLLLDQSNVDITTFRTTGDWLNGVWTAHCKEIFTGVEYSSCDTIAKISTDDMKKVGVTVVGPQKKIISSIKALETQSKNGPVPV
The note with it: 1 μM; Run 1, Run 2.

The target in the next assay is LIMK2 (Homo sapiens, UniProt P53671). The settings on record: 1 μM; Run 1, Run 2.
Another assay concerns the target T2, MARK4 (Homo sapiens, UniProt Q96L34).
T2 sequence (Q96L34 1-752): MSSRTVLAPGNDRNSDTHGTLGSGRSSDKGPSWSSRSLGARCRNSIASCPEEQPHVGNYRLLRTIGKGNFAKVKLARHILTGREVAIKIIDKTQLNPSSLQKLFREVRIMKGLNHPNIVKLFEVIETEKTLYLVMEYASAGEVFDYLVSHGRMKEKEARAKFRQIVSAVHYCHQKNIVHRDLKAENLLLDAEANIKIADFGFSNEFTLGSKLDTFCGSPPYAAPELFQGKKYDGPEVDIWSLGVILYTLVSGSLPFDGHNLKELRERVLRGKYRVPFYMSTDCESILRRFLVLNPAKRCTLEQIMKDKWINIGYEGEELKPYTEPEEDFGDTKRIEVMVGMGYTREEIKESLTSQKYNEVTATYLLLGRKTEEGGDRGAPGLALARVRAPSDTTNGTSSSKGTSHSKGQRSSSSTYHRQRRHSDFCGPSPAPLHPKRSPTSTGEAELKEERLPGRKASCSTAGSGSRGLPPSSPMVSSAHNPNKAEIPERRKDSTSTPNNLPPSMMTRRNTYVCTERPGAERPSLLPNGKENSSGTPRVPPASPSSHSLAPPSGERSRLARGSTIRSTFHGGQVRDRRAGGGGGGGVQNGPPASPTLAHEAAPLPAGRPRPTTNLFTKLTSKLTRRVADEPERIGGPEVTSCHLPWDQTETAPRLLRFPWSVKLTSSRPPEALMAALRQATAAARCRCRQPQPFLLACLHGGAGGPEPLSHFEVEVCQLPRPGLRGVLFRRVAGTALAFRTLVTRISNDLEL
The settings on record: 1 μM; Run 1, Run 2.

For another assay, the target named is T3, MYLK4 (Homo sapiens, UniProt Q86YV6).
T3 sequence (Q86YV6 1-388): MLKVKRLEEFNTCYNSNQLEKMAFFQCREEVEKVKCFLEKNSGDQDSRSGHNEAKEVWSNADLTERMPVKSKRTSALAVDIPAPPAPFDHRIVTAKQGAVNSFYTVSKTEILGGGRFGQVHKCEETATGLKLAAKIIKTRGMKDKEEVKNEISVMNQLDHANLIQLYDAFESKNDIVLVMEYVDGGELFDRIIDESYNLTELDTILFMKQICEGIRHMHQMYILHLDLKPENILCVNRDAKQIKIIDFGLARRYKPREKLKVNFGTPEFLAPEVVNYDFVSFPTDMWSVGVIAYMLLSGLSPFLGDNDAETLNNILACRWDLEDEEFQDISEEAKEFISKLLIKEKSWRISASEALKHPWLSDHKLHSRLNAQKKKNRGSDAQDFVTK
The note with it: 1 μM; Run 1, Run 2.

Another assay has as its target CAMK4 (Homo sapiens, UniProt Q16566). Nature of the assay: biochemical. The settings on record: read-out: % enzyme activity, 1 μM; Run 1, Run 2.
The target of another assay is CDK4/cyclin D3 (Homo sapiens, UniProt P11802). Kind of assay: biochemical. The settings on record: read-out: % enzyme activity, 1 μM; Run 1, Run 2.
The target of another assay is DAPK1 (Homo sapiens, UniProt P53355). Nature of the assay: biochemical. The settings on record: read-out: % enzyme activity, 1 μM; Run 1, Run 2.
The next assay concerns the target ERK1 (Homo sapiens, UniProt P27361). Nature of the assay: biochemical. The note with it: read-out: % enzyme activity, 1 μM; Run 1, Run 2.
A further assay has as its target GRK4 (Homo sapiens, UniProt P32298). Nature of the assay: biochemical. The settings on record: read-out: % enzyme activity, 1 μM; Run 1, Run 2.
For the next assay, the target named is PDGFRa (Homo sapiens, UniProt P16234). Kind of assay: biochemical. The settings on record: read-out: % enzyme activity, 1 μM; Run 1, Run 2.
Another assay deals with PKCb1 (Homo sapiens, UniProt P05771). Kind of assay: biochemical. The note with it: read-out: % enzyme activity, 1 μM; Run 1, Run 2.
Another assay deals with TLK2 (Homo sapiens, UniProt Q86UE8). Kind of assay: biochemical. The note with it: read-out: % enzyme activity, 1 μM; Run 1, Run 2.
Sequence of TLK2 (Q86UE8 whole entry): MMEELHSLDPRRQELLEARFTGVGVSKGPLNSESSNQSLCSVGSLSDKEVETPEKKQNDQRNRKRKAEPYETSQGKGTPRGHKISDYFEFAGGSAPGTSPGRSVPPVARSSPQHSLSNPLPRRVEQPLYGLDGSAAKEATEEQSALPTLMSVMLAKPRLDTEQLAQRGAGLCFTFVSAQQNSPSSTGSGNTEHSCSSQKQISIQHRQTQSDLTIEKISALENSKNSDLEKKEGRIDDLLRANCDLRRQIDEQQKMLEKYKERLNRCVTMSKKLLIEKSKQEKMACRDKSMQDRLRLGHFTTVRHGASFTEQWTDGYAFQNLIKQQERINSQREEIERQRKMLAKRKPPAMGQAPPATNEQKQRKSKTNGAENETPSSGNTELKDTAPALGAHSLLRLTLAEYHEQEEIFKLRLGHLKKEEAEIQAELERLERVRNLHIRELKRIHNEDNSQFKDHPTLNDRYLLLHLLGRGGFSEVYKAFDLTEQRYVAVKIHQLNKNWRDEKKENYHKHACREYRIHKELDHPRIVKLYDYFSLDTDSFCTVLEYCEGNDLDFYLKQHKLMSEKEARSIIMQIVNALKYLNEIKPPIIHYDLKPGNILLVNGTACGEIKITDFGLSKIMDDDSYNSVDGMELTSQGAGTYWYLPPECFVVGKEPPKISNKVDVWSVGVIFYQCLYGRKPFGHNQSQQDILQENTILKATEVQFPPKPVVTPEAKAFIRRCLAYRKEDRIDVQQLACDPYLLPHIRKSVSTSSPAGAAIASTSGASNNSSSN

Sequence of PDGFRa (P16234 24-1089): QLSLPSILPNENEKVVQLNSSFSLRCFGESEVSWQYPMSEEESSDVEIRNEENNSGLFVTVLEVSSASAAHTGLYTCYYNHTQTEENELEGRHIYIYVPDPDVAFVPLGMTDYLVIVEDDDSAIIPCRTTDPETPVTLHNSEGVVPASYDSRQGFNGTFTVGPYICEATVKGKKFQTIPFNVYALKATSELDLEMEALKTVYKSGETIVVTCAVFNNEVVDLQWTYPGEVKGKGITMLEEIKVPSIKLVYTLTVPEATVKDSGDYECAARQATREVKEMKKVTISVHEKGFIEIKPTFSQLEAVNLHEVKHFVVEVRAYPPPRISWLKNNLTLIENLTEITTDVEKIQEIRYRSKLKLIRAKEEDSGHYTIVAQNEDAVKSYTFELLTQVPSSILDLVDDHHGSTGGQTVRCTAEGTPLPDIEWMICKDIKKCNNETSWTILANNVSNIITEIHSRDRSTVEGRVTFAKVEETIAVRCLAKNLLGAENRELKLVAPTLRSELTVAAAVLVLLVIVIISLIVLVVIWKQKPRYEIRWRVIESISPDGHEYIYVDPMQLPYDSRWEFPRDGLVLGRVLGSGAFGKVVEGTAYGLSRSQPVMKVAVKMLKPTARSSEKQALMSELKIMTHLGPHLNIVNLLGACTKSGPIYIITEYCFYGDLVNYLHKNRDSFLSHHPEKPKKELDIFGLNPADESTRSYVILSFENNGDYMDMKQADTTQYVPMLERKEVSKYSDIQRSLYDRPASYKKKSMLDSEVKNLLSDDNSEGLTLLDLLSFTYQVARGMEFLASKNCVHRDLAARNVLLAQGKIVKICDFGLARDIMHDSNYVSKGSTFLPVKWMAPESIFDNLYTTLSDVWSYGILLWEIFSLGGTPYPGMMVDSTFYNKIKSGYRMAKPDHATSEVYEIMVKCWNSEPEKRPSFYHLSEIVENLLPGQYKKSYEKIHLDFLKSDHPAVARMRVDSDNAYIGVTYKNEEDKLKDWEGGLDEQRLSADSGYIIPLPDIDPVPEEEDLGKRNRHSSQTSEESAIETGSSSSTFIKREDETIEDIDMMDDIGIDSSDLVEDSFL
Sequence of CK2a2 (P19784 whole entry): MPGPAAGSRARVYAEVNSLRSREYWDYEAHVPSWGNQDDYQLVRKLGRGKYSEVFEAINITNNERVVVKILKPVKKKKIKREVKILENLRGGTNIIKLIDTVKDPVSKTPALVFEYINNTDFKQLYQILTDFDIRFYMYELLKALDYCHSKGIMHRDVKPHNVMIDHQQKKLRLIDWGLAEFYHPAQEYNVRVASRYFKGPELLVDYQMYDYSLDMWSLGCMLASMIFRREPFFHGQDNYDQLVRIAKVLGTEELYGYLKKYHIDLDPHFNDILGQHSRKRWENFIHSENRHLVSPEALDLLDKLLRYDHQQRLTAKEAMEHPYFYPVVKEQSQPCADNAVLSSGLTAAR
Sequence of BRK (Q13882 whole entry): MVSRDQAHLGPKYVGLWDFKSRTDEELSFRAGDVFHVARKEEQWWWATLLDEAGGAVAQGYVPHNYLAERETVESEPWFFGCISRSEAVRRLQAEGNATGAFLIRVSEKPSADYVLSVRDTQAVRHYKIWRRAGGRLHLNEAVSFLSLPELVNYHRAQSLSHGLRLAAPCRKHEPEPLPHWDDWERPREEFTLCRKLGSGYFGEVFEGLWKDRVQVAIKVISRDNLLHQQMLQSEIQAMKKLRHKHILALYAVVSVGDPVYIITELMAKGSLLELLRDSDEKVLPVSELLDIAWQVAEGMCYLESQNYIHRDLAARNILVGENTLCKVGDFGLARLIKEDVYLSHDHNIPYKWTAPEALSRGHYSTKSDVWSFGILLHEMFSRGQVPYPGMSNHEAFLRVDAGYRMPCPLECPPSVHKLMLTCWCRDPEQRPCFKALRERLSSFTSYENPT
Sequence of LIMK2 (P53671 whole entry): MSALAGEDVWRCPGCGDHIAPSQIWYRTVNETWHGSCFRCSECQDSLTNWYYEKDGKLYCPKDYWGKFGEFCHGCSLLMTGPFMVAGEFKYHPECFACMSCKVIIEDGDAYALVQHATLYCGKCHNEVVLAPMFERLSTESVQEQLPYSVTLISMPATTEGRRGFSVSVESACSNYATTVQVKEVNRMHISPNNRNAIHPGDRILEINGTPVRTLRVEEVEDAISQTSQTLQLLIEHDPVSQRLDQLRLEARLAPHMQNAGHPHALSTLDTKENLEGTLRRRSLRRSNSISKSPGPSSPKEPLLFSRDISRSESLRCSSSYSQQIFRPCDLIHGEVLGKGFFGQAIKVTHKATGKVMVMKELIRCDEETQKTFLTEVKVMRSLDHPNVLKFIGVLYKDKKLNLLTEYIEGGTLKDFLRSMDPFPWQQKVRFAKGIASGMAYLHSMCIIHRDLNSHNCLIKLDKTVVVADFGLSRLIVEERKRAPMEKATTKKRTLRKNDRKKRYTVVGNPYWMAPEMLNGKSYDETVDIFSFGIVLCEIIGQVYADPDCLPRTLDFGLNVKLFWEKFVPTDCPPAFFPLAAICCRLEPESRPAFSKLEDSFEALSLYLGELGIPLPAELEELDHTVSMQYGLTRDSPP
Sequence of ERK1 (P27361 whole entry): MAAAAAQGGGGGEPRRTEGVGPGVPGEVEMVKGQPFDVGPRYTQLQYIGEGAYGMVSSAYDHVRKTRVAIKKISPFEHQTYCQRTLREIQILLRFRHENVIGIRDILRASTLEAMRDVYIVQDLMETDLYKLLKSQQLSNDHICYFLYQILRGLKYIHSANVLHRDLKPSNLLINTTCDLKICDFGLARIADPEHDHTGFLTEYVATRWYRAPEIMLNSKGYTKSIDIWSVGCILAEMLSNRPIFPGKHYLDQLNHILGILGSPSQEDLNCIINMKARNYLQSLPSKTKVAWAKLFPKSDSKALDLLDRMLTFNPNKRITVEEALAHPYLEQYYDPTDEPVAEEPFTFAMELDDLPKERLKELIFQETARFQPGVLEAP
Sequence of CAMK4 (Q16566 whole entry): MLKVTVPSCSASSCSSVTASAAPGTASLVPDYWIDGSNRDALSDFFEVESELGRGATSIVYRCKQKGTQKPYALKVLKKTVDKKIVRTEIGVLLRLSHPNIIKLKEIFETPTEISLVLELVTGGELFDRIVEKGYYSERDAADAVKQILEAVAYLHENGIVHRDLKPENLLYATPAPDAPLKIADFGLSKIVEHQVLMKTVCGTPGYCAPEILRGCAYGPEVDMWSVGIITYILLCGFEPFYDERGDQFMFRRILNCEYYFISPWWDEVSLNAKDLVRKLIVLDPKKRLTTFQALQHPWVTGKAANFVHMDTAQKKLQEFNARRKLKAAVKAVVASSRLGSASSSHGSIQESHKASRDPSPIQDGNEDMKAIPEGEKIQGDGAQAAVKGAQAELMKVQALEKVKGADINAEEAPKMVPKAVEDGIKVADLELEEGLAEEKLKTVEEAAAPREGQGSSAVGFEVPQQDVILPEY
Sequence of PKCb1 (P05771 whole entry): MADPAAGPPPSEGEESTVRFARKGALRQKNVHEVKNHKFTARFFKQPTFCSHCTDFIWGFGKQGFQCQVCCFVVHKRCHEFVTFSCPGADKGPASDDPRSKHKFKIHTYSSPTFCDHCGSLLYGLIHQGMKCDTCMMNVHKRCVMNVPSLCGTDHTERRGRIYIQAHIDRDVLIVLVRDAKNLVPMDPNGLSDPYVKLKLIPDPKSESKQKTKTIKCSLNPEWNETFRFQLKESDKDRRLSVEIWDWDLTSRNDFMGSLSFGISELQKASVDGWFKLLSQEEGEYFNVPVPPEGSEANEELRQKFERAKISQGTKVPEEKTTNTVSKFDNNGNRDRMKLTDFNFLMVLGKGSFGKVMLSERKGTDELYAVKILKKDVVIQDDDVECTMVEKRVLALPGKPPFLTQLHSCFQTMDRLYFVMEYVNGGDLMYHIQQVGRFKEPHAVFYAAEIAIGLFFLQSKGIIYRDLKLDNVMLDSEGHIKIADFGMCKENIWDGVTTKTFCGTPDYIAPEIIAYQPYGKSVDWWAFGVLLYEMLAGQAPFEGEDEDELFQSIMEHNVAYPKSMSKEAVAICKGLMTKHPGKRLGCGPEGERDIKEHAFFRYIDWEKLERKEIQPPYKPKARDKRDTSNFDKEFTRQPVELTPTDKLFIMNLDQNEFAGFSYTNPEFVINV

In the case of `COc1cc(-c2cncc(-c3ccc(N4C[C@@H](C)N(C)[C@@H](C)C4)cc3)c2C)cc(F)c1C(N)=O` [Compound 26c, 2-Fluoro-6-methoxy-4-(4-methyl-5-(4-((3R,5S)-3,4,5-trimethylpiperazin-1-yl)phenyl)pyridin-3-yl)benzamide], the “% enzyme activity” value on BRK came out at 73.52%; on CK2a2, 98.98%; on EPHA3 it was 98.11%; at LIMK2, 95.75%; at MARK4, 95.76%; on MYLK4, 102.67%. Also, the remaining activity at 1 µM on CAMK4 was found to be 103%; on CDK4/cyclin D3, 96%; at DAPK1, 98.8%; at ERK1, 95.3%; at GRK4, 97.1%; on PDGFRa, 81.9%. Further, the remaining activity at 1 µM at PKCb1 worked out at 85.3%; on TLK2, 93.3%.

In the case of `COc1cc(-c2cncc(-c3ccc(N4CCN(C)CC4)cc3)c2C)cc(F)c1C(N)=O` [Compound 26a, 2-Fluoro-6-methoxy-4-(4-methyl-5-(4-(4-methylpiperazin-1-yl)phenyl)pyridin-3-yl)benzamide], the “% enzyme activity” value at BRK is given as 58.28%; at CK2a2, 92.27%; at EPHA3, 94.70%; on LIMK2, 99.63%; at MARK4 it was 82.62%; on MYLK4, 95.79%. For the same compound, the remaining activity at 1 µM was determined as 100% at CAMK4; 101% on CDK4/cyclin D3; 95.7% on DAPK1; 97.3% at ERK1; 80.4% at GRK4; 82.9% on PDGFRa. For the same compound, the figures for the remaining activity at 1 µM on PKCb1 and on TLK2 were 85.5% and 96.6%, respectively.
